Reference: ChEMBL document CHEMBL3991601, “The target landscape of clinical kinase drugs” (Science, 2017)
Active and inactive are the calls of the source. For most assays here, no stated cut-off is given here; in the data, actives have a measured Kd and inactives only a lower limit.

Legend:
[1] = target: T1, Membrane-associated tyrosine- and threonine-specific cdc2-inhibitory kinase (Homo sapiens, UniProt Q99640)
T1 sequence (Q99640 whole entry): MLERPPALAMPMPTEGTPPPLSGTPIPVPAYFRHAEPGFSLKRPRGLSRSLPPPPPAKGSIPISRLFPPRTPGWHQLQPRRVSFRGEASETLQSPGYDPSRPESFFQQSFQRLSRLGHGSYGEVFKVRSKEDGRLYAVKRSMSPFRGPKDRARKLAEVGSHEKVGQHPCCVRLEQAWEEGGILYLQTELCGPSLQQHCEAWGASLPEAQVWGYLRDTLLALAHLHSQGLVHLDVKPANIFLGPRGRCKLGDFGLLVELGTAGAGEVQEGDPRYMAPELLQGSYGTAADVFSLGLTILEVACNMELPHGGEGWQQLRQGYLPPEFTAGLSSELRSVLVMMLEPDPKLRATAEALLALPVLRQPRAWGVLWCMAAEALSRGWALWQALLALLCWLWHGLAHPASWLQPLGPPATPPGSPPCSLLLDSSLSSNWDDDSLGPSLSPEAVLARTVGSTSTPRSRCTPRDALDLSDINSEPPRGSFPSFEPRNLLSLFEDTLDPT

[2] = target: Hepatocyte growth factor receptor (Homo sapiens, UniProt P08581)
[3] = target: Non-receptor tyrosine-protein kinase TYK2 (Homo sapiens, UniProt P29597)
Non-receptor tyrosine-protein kinase TYK2, sequence (P29597 whole entry): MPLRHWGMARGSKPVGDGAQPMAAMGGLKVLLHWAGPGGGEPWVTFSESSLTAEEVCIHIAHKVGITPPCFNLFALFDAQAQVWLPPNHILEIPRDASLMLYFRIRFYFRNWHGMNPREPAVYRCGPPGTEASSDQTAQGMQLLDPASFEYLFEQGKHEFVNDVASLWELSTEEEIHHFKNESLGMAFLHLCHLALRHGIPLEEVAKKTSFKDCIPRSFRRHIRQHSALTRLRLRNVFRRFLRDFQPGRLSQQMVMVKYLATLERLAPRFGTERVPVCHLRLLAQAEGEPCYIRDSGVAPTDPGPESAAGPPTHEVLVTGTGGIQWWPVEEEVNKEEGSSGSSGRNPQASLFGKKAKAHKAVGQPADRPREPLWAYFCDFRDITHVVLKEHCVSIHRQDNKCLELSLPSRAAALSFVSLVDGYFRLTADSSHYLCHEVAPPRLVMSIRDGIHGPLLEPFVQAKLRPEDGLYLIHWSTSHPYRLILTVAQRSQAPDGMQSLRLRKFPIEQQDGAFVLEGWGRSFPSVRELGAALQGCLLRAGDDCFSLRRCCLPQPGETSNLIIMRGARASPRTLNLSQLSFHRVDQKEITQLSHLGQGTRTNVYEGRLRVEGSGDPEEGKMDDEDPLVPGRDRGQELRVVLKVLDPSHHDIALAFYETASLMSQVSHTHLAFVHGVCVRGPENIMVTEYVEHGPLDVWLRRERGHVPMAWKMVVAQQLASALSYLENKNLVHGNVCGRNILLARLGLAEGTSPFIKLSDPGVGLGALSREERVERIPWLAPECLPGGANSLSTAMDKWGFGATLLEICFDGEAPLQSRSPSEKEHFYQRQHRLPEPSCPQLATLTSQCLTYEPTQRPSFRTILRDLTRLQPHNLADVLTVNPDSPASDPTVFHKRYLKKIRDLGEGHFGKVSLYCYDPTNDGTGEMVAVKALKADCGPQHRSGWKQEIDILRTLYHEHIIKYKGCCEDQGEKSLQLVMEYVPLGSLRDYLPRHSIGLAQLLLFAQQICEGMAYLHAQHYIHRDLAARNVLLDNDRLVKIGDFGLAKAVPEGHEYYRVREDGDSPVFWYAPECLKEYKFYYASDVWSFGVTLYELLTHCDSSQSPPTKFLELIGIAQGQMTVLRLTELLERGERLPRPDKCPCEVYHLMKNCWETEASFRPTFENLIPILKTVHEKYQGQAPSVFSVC

[4] = target: Tyrosine-protein kinase FRK (Homo sapiens, UniProt P42685)
Tyrosine-protein kinase FRK, sequence (P42685 whole entry): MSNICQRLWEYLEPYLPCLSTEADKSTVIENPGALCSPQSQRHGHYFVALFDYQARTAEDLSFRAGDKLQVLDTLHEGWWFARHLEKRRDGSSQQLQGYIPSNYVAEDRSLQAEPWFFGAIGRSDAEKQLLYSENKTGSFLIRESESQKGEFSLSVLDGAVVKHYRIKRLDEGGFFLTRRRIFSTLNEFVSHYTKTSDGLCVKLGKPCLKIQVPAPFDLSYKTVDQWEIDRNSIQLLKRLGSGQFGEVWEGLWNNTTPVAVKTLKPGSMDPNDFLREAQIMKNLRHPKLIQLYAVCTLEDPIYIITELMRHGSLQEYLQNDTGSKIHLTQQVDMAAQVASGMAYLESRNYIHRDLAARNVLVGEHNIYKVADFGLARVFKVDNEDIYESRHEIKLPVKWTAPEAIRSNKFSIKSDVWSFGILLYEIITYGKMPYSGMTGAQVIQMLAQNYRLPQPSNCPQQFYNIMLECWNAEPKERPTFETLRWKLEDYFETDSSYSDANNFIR

[5] = target: T2, Mitogen-activated protein kinase kinase kinase kinase 3 (Homo sapiens, UniProt Q8IVH8)
T2 sequence (Q8IVH8 whole entry): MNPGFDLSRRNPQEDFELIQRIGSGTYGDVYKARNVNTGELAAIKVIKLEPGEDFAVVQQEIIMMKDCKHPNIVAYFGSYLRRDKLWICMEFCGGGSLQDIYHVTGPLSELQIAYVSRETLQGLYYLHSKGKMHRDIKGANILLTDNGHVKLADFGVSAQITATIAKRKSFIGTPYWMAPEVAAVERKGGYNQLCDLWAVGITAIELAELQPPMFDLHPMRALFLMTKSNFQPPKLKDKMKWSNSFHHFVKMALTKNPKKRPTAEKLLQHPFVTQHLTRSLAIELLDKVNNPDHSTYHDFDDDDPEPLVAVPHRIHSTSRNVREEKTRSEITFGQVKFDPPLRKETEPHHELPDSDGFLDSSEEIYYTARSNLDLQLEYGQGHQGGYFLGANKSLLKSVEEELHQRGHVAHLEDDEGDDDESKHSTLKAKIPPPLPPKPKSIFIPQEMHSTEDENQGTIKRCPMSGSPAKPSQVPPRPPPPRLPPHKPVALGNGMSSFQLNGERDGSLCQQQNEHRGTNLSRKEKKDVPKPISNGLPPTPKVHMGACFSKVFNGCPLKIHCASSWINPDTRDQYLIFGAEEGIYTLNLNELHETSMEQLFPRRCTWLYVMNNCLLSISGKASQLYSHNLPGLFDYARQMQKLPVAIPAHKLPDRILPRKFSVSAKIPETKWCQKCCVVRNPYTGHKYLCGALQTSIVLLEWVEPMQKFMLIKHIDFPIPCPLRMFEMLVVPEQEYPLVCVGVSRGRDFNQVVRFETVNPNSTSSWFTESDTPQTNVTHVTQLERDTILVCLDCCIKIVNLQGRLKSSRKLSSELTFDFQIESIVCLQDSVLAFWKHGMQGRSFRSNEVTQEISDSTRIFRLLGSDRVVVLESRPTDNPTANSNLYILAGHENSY

[6] = target: Tyrosine-protein kinase BTK (Homo sapiens, UniProt Q06187)
Tyrosine-protein kinase BTK, sequence (Q06187 whole entry, the tested form may be a part): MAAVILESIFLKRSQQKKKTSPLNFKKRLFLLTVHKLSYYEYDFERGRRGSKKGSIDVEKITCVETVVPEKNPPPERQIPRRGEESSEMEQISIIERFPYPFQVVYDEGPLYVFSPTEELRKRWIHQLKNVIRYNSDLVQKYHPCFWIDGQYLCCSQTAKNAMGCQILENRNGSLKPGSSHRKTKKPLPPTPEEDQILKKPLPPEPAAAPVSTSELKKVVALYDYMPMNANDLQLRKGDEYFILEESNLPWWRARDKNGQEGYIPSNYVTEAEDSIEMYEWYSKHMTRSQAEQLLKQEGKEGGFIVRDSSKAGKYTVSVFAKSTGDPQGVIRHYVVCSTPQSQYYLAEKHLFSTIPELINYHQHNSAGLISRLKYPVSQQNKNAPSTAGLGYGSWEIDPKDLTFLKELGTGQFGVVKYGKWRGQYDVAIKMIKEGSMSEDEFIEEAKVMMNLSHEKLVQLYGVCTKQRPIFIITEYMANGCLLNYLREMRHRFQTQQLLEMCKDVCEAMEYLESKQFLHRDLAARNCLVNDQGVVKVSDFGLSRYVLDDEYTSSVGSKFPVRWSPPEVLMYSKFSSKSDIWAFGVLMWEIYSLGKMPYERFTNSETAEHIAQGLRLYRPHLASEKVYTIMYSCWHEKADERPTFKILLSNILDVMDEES

[7] = target: Epithelial discoidin domain-containing receptor 1 (Homo sapiens, UniProt Q08345)
Epithelial discoidin domain-containing receptor 1, sequence (Q08345 whole entry, the tested form may be a part): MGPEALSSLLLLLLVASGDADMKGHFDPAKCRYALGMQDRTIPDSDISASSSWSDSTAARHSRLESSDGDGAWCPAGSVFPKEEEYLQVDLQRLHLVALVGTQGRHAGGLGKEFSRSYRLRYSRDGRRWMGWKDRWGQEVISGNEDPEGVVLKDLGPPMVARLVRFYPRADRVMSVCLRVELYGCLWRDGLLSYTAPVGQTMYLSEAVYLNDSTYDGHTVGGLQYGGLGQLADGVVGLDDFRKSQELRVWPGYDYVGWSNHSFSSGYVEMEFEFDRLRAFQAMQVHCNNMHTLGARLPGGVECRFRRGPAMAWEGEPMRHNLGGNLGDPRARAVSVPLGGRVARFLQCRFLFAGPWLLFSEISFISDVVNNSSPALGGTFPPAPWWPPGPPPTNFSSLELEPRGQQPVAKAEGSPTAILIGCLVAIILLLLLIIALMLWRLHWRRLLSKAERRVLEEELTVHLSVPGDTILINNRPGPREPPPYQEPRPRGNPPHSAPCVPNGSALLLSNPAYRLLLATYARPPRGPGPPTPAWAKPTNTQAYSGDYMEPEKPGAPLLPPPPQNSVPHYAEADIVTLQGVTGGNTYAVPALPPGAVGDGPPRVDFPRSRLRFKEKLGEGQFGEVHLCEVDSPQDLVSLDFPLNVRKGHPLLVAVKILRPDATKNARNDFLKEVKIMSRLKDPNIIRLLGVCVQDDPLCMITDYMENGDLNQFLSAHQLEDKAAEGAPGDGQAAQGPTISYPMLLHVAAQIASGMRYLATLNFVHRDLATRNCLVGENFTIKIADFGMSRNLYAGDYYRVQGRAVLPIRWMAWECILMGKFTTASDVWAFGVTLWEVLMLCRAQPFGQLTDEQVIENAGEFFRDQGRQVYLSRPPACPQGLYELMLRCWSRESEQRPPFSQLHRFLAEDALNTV

[8] = target: T3, Septin-9 (Homo sapiens, UniProt Q9UHD8)
T3 sequence (Q9UHD8 whole entry): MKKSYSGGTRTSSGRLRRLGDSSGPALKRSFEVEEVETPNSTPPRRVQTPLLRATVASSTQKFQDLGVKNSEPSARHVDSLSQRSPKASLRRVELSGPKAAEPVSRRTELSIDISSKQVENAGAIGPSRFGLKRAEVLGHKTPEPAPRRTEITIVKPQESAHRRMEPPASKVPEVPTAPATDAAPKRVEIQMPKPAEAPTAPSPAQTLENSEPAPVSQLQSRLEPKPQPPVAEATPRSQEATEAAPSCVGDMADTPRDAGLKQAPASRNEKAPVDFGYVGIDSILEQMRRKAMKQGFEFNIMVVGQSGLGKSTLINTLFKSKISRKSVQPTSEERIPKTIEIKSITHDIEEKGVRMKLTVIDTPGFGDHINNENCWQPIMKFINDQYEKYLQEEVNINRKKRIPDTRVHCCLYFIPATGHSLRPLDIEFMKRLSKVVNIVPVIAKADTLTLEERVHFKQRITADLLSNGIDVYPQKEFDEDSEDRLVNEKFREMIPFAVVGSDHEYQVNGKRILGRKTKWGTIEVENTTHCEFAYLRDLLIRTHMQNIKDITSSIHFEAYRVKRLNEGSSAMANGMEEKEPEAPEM

[9] = target: 26S proteasome regulatory subunit 6B (Homo sapiens, UniProt P43686)
26S proteasome regulatory subunit 6B, sequence (P43686 whole entry): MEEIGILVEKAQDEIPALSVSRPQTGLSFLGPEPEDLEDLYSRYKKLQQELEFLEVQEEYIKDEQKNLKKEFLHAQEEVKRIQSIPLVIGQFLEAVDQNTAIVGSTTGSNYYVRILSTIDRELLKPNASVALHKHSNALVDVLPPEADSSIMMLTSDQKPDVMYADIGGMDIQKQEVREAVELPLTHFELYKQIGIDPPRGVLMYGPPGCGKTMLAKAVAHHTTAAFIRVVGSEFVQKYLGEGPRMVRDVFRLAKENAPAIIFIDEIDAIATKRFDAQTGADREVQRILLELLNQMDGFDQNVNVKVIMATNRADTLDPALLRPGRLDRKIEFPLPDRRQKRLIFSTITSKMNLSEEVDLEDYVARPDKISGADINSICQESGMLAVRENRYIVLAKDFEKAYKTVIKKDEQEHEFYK

[10] = target: T4, Dual specificity mitogen-activated protein kinase kinase 5 (Homo sapiens, UniProt Q13163)
T4 sequence (Q13163 whole entry): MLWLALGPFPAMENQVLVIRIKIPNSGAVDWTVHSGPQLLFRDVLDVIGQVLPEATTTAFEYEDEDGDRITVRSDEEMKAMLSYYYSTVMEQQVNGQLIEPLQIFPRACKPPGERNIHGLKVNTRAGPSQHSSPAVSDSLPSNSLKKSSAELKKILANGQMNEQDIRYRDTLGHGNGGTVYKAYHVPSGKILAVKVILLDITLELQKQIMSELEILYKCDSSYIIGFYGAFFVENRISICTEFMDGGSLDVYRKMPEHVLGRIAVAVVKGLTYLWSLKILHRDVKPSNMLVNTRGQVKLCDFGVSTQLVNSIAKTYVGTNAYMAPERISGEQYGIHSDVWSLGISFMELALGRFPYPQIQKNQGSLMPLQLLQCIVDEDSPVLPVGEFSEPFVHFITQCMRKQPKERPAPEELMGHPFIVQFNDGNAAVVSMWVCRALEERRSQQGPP

[11] = target: Casein kinase I isoform alpha (Homo sapiens, UniProt P48729)
Casein kinase I isoform alpha, sequence (P48729 whole entry, canonical isoform): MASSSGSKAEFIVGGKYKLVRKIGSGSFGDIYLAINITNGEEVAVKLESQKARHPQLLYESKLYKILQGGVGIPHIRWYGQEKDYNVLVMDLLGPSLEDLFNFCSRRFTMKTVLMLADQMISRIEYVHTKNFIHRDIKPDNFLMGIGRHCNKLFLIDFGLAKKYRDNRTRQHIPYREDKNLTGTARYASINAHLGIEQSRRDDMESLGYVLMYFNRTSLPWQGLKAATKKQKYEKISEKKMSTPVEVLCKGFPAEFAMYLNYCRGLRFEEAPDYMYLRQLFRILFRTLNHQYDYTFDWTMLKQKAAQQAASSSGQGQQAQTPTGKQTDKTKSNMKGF

Row | SMILES | Kd [1] | Kd [2] | Kd [3] | Kd [4] | Kd [5] | Kd [6] | Kd [7] | Kd [8] | Kd [9] | Kd [10] | Kd [11]
1 | Cc1nc2cc(-c3nn(C(C)C)c4ncnc(N)c34)ccc2o1 | > 30 µM (inactive) | > 30 µM (inactive) | > 30 µM (inactive) | > 30 µM (inactive) | > 30 µM (inactive) | > 30 µM (inactive) | 0.881 µM (active) | > 30 µM (inactive) | > 30 µM (inactive) |  | 
2 | COc1cc(Nc2ncc3c(n2)-c2ccc(Cl)cc2C(c2c(F)cccc2OC)=NC3)ccc1C(=O)O [ALISERTIB] | > 30 µM (inactive) |  |  |  | > 30 µM (inactive) |  | > 30 µM (inactive) | > 30 µM (inactive) | > 30 µM (inactive) | > 30 µM (inactive) | 
3 | O=C(Nc1c[nH]nc1-c1nc2cc(CN3CCOCC3)ccc2[nH]1)NC1CC1 [AT-9283] | > 30 µM (inactive) |  |  | > 30 µM (inactive) | > 30 µM (inactive) | 0.537 µM (active) |  | > 30 µM (inactive) | > 30 µM (inactive) | 0.047 µM (active) | > 30 µM (inactive)
4 | CNC(=O)c1ccccc1Sc1ccc2c(/C=C/c3ccccn3)n[nH]c2c1 [AXITINIB] |  |  |  |  |  |  |  | > 30 µM (inactive) | > 30 µM (inactive) |  | 
5 | Cc1cc(C(=O)NOCCO)c(Nc2ccc(I)cc2F)n(C)c1=O [AZD-8330] | > 30 µM (inactive) |  | > 30 µM (inactive) | > 30 µM (inactive) | > 30 µM (inactive) | > 30 µM (inactive) | > 30 µM (inactive) | > 30 µM (inactive) | > 30 µM (inactive) | 2.66 µM (active) | > 30 µM (inactive)
6 | CC(C)(C)c1nc(-c2cccc(NS(=O)(=O)c3c(F)cccc3F)c2F)c(-c2ccnc(N)n2)s1 [DABRAFENIB] | > 30 µM (inactive) |  |  | 0.727 µM (active) | > 30 µM (inactive) |  | > 30 µM (inactive) | > 30 µM (inactive) | > 30 µM (inactive) | 2.29 µM (active) | > 30 µM (inactive)
7 | Cn1cc(C2=C(c3cn(C4CCN(Cc5ccccn5)CC4)c4ccccc34)C(=O)NC2=O)c2ccccc21 [ENZASTAURIN] |  |  |  |  |  |  |  | > 30 µM (inactive) | > 30 µM (inactive) |  | 
8 | C[C@@H](Oc1cc(-n2cnc3ccc(CN4CCN(C)CC4)cc32)sc1C(N)=O)c1ccccc1C(F)(F)F [GSK-461364] |  |  |  |  |  |  |  | > 30 µM (inactive) | > 30 µM (inactive) |  | 
9 | CCn1cc(-c2ccnc3[nH]c(-c4cccc(CN(C)C)c4)cc23)c(-c2ccc(NC(=O)N(C)C)cc2)n1 [GSK-1070916] | > 30 µM (inactive) | > 30 µM (inactive) |  | > 30 µM (inactive) |  |  | 0.008 µM (active) | > 30 µM (inactive) | > 30 µM (inactive) | 1.93 µM (active) | 
10 | CNC(=O)c1nn(C)c2c1C(C)(C)Cc1cnc(Nc3ccc(N4CCN(C)CC4)cc3)nc1-2 [MILCICLIB] | > 30 µM (inactive) |  | > 30 µM (inactive) | 3.02 µM (active) | 2.06 µM (active) | > 30 µM (inactive) | 4.17 µM (active) | > 30 µM (inactive) | > 30 µM (inactive) | > 30 µM (inactive) | 0.995 µM (active)
11 | Cn1cc(-c2cnc3ccc4ccc(CS(=O)(=O)NCc5ccccn5)cc4c(=O)c3c2)cn1 [MK-8033] | > 30 µM (inactive) |  | > 30 µM (inactive) | > 30 µM (inactive) | > 30 µM (inactive) | > 30 µM (inactive) | > 30 µM (inactive) | > 30 µM (inactive) | > 30 µM (inactive) | > 30 µM (inactive) | > 30 µM (inactive)
12 | COc1ncc(-c2ccc3nccc(-c4ccnnc4)c3c2)cc1NS(=O)(=O)c1ccc(F)cc1F [OMIPALISIB] | > 30 µM (inactive) |  | > 30 µM (inactive) | > 30 µM (inactive) | > 30 µM (inactive) | > 30 µM (inactive) | > 30 µM (inactive) | > 30 µM (inactive) | > 30 µM (inactive) | > 30 µM (inactive) | > 30 µM (inactive)
13 | Cc1[nH]c(/C=C2\C(=O)Nc3ccccc32)c(C)c1CCC(=O)O [ORANTINIB] | > 30 µM (inactive) |  |  |  |  |  | > 30 µM (inactive) | > 30 µM (inactive) | > 30 µM (inactive) | 4.94 µM (active) | 
14 | NC(=O)c1c(OCc2c(F)cc(Br)cc2F)nsc1NC(=O)NCCCCN1CCCC1 [OSI-632] | > 30 µM (inactive) |  |  |  |  |  | 0.067 µM (active) | > 30 µM (inactive) | > 30 µM (inactive) | > 30 µM (inactive) | 
15 | CCOc1cc2ncc(C#N)c(Nc3ccc(F)c(Cl)c3)c2cc1NC(=O)/C=C/CN(C)C [PELITINIB] | > 30 µM (inactive) |  | > 30 µM (inactive) | > 30 µM (inactive) | 0.189 µM (active) | 0.514 µM (active) | > 30 µM (inactive) | > 30 µM (inactive) | > 30 µM (inactive) | > 30 µM (inactive) | > 30 µM (inactive)
16 | CCCCCCCCCCCCCCCCCCOP(=O)([O-])OC1CC[N+](C)(C)CC1 [PERIFOSINE] | > 30 µM (inactive) |  | > 30 µM (inactive) | > 30 µM (inactive) | > 30 µM (inactive) | > 30 µM (inactive) | > 30 µM (inactive) | > 30 µM (inactive) | > 30 µM (inactive) | > 30 µM (inactive) | > 30 µM (inactive)
17 | CC(=O)NCC(=O)N1[C@@H]2CC[C@H]1c1ccc(Nc3ncc(C(F)(F)F)c(NC4CCC4)n3)cc12 [PF-03814735] | > 30 µM (inactive) |  |  |  | 0.766 µM (active) |  | > 30 µM (inactive) | > 30 µM (inactive) | > 30 µM (inactive) |  | 
18 | O=C(NOCCO)c1cc(CN2OCCCC2=O)c(F)c(F)c1Nc1ccc(I)cc1F [RO-4987655] |  |  |  |  |  |  |  | > 30 µM (inactive) | > 30 µM (inactive) |  | 
19 | N#CC[C@H](C1CCCC1)n1cc(-c2ncnc3[nH]ccc23)cn1 [RUXOLITINIB] |  |  |  |  |  |  |  | > 30 µM (inactive) | > 30 µM (inactive) |  | 
